Assay results: ChEMBL document CHEMBL3886808, “Pyrrolidine derivatives and their use as complement pathway modulators” (2016)

Target: Complement factor D (Homo sapiens, UniProt P00746)
Test: In Vitro Assay: Recombinant human factor D (expressed in E. coli and purified using standard methods) at 10 nM concentration is incubated with test compound at various concentrations for 1 hour at room temperature in 0.1 M Hepes buffer, pH 7.5, containing 1 mM MgCl2, 1 M NaCl and 0.05% CHAPS. A synthetic substrate Z-Lys-thiobenzyl and 2,4-dinitrobenzenesulfonyl-fluoresceine are added to final concentrations of 200 μM and 25 μM, respectively. The increase in fluorescence is recorded at excitation of 485 nm and emission at 535 nm in a microplate spectrofluorimeter.

Sequence of Complement factor D (P00746 whole entry): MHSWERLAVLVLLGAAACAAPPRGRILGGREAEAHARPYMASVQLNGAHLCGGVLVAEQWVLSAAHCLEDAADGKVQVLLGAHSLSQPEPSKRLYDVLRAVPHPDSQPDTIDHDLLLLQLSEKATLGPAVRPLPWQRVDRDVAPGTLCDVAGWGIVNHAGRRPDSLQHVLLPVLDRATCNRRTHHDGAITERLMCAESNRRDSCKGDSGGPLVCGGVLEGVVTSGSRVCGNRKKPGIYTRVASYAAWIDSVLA

SMILES	IC50 [µM]
CC(=O)c1nn(CC(=O)N2[C@@H]3C[C@@H]3C[C@H]2C(=O)NCCCC(F)(F)F)c2ncccc12	1.14
CC(F)(F)CCNC(=O)[C@@H]1C[C@H]2C[C@H]2N1C(=O)Cn1nc(C(N)=O)c2ccccc21	1.05
